Results on eight compounds are retold here after ChEMBL document CHEMBL1151658, “Degradation of Lycorine by Pseudomonas Species Strain ITM 311” (1985).

Experiment [1] has as its system Rhodococcus fascians. Briefly: Antimicrobial activity against Corynebacterium fascians NCPPB 2551 at 0.0001 molarity/paper disk. It counts as functional, Rhodococcoides fascians.
Experiment [2] deals with Rhodococcus fascians. Put plainly: Antimicrobial activity against Corynebacterium fascians NCPPB 2551 at 0.0005 molarity/paper disk. It counts as functional, Rhodococcoides fascians.
In experiment [3] the test system is Rhodococcus fascians. Put plainly: Antimicrobial activity against Corynebacterium fascians NCPPB 2551 at 0.001 molarity/paper disk. Type of experiment: functional, Rhodococcoides fascians.
The test system of experiment [4] is Rhodococcus fascians. Put plainly: Antimicrobial activity against Corynebacterium fascians NCPPB 2551 at 0.01 molarity/paper disk. Type of experiment: functional, Rhodococcoides fascians.
The next experiment has as its system Priestia megaterium. Put plainly: Antimicrobial activity against Bacillus megaterium ITM 80 after 48 to 72 hrs by paper disk method. It counts as functional, organism-based.
Experiment [5] concerns Pseudomonas syringae. Put plainly: Antimicrobial activity against Pseudomonas syringae pv. tabaci NCPPB 2730 after 48 to 72 hrs by paper disk method. The settings on record: Pseudomonas amygdali pv. tabaci. It counts as functional, organism-based.
Experiment [6] has as its system Pseudomonas syringae. Put plainly: Antimicrobial activity against Pseudomonas syringae pv. tomato NCPPB 2563 after 48 to 72 hrs by paper disk method. It counts as functional, organism-based.
The test system of experiment [7] is Pseudomonas syringae. Put plainly: Antimicrobial activity against Pseudomonas syringae pv. syringae NCPPB ITM24 after 48 to 72 hrs by paper disk method. It counts as functional, organism-based.
Experiment [8] has as its system Curtobacterium flaccumfaciens. Briefly: Antimicrobial activity against Corynebacterium flaccumfaciens NCPPB 559 after 48 to 72 hrs by paper disk method. It counts as functional, organism-based.
The test system of another experiment is Pseudomonas savastanoi. Briefly: Antimicrobial activity against Pseudomonas savastanoi ITM 519 after 48 to 72 hrs by paper disk method. It counts as functional, organism-based.
Experiment [9] deals with Pectobacterium carotovorum. Briefly: Antimicrobial activity against Erwinia carotovora subsp. carotovora NCPPB ITM 180 after 48 to 72 hrs by paper disk method. It counts as functional, organism-based.
Experiment [10] has as its system Pseudomonas coronafaciens. Put plainly: Antimicrobial activity against Pseudomonas coronafaciens NCPPB 2481 after 48 to 72 hrs by paper disk method. It counts as functional, organism-based.
For experiment [11], the system named is Xanthomonas euvesicatoria. Put plainly: Antimicrobial activity against Xanthomonas campestris pv. vesicatoria NCPPB 1616 after 48 to 72 hrs by paper disk method. Type of experiment: functional, organism-based.
Experiment [12] deals with Pseudomonas syringae. Put plainly: Antimicrobial activity against Pseudomonas syringae pv. maculicola NCPPB 1777 after 48 to 72 hrs by paper disk method. Type of experiment: functional, organism-based.
The next experiment concerns Pseudomonas cichorii. Briefly: Antimicrobial activity against Pseudomonas cichorii NCPPB 2379 after 48 to 72 hrs by paper disk method. It counts as functional, organism-based.
The test system of experiment [13] is Agrobacterium tumefaciens. Put plainly: Antimicrobial activity against Agrobacterium tumefaciens ITM 71 after 48 to 72 hrs by paper disk method. It counts as functional, organism-based.
Another experiment deals with Pseudomonas. Put plainly: Antimicrobial activity against Pseudomonas ITM 311 after 48 to 72 hrs by paper disk method. Type of experiment: functional, organism-based.

The source made the active and inactive calls. The calls are words filed in the database; no cut-off is given here.

For `Oc1ccc2c3c1c1cc4c(cc1c[n+]3CC2)OCO4.[Cl-]`, the “inhibition zone (IZ)” value in the experiment with Rhodococcus fascians [1] came out at 0 mm; in the experiment on Rhodococcus fascians [2] it was 0 mm; in the experiment with Rhodococcus fascians [3], 7 mm; in the experiment with Rhodococcus fascians [4], 10 mm.

Regarding `O=c1c2cc3c(cc2c2cccc4c2n1CC4)OCO3`, the “inhibition zone (IZ)” value in the experiment with Rhodococcus fascians [1] was found to be 0 mm; with Rhodococcus fascians [2], 9 mm; in the experiment with Rhodococcus fascians [3] it was 12 mm; in the experiment on Rhodococcus fascians [4], 25 mm.

Consider `Oc1cc2c3c(c1)c1cc4c(cc1c[n+]3CC2)OCO4.[Cl-]`, for which the “inhibition zone (IZ)” value with Rhodococcus fascians [1], in the experiment with Rhodococcus fascians [2], in the experiment on Rhodococcus fascians [3] and in the experiment with Rhodococcus fascians [4] was 0 mm throughout.

For `c1cc2c3c(c1)-c1cc4c(cc1CN3CC2)OCO4` [ANHYDROLYCORINE], the “inhibition zone (IZ)” value with Rhodococcus fascians [1] was 0 mm; in the experiment on Rhodococcus fascians [2], 15 mm; with Rhodococcus fascians [3] it was 25 mm; with Rhodococcus fascians [4] it was 25 mm.

For `[Cl-].c1cc2c3c(c1)c1cc4c(cc1c[n+]3CC2)OCO4` [ANHYDROLYCORINIUM CHLORIDE], the outcome (with Priestia megaterium; in the experiment on Pseudomonas syringae [5]; in the experiment on Pseudomonas syringae [6]; in the experiment on Pseudomonas syringae [7]; in [8]; in the experiment with Pseudomonas savastanoi) was Active. In addition, the result (in [9]; in experiment [10]; in experiment [11]; in the experiment with Pseudomonas syringae [12]; in the experiment with Pseudomonas cichorii; in [13]) was Active. Moreover, the “inhibition zone (IZ)” value amounted to 10 mm in the experiment on Rhodococcus fascians [1], 16 mm with Rhodococcus fascians [2], 24 mm with Rhodococcus fascians [3] and 30 mm with Rhodococcus fascians [4]. In addition, in the experiment with Pseudomonas, the outcome was inactive.

For `O[C@H]1[C@H]2c3cc4c(cc3CN3CCC(=C[C@@H]1O)[C@H]23)OCO4` [LYCORINE], the “inhibition zone (IZ)” value with Rhodococcus fascians [1], in the experiment with Rhodococcus fascians [2], with Rhodococcus fascians [3] and with Rhodococcus fascians [4] was 0 mm each time.

In the case of `O=C1N[C@@H]2C(=C[C@H](O)[C@@H](O)[C@H]2O)c2cc3c(c(O)c21)OCO3` [NARCICLASINE], the “inhibition zone (IZ)” value with Rhodococcus fascians [1], with Rhodococcus fascians [2], in the experiment on Rhodococcus fascians [3] and in the experiment on Rhodococcus fascians [4] was 0 mm throughout.

Turning to `[O-]c1cc2c3c(c1)c1cc4c(cc1c[n+]3CC2)OCO4` [UNGEREMINE], the outcome (in the experiment with Priestia megaterium; in the experiment with Pseudomonas syringae [5]; in the experiment on Pseudomonas syringae [6]; with Pseudomonas syringae [7]; in [8]; in the experiment with Pseudomonas savastanoi) was Active. Also, the outcome (in [9]; in [10]; in [11]; in the experiment with Pseudomonas syringae [12]; in the experiment on Pseudomonas cichorii; in experiment [13]) was Active. In addition, the “inhibition zone (IZ)” value in the experiment on Rhodococcus fascians [1] is listed as 0 mm; in the experiment with Rhodococcus fascians [2], 0 mm; with Rhodococcus fascians [3], 14 mm; in the experiment on Rhodococcus fascians [4], 15 mm. Besides, in the experiment with Pseudomonas, the result was inactive.
